Data as given in ChEMBL document CHEMBL1129257, “Potent inhibition of tumor necrosis factor-alpha production by tetrafluorothalidomide and tetrafluorophthalimides” (J Med Chem, 1996).

Tests used:
Format in all cases: functional
[1] = target: T1, Tumor necrosis factor (Homo sapiens, UniProt P01375); assay: Inhibition of TNF-alpha production from human monocytes upon stimulation with bacterial lipopolysaccharide (LPS) at a concentration of 200 uM
[2] = target: T1, Tumor necrosis factor; assay: Inhibition of TNF-alpha production from human monocytes upon stimulation with bacterial lipopolysaccharide (LPS) at a concentration of 1 uM; details: values are per cent of control
[3] = target: T1, Tumor necrosis factor; assay: Inhibition of TNF-alpha production from human monocytes upon stimulation with bacterial lipopolysaccharide (LPS) at a concentration of 100 nM; details: values are per cent of control
[4] = target: T1, Tumor necrosis factor; assay: Inhibition of TNF-alpha production from human monocytes upon stimulation with bacterial lipopolysaccharide (LPS) at a concentration of 215 nM; details: values are per cent of control
[5] = target: T1, Tumor necrosis factor; assay: Inhibition of TNF-alpha production from human monocytes upon stimulation with bacterial lipopolysaccharide (LPS) at a concentration of 464 nM; details: values are per cent of control
[6] = target: T1, Tumor necrosis factor; assay: Inhibition of TNF-alpha production from human monocytes upon stimulation with bacterial lipopolysaccharide (LPS) at a concentration of 100 uM,
[7] = target: T1, Tumor necrosis factor; assay: Inhibition of TNF-alpha production from human monocytes upon stimulation with bacterial lipopolysaccharide (LPS) at a concentration of 215 uM,
[8] = target: T1, Tumor necrosis factor; assay: Inhibition of TNF-alpha production from human monocytes upon stimulation with bacterial lipopolysaccharide (LPS) at a concentration of 464 uM
[9] = target: T1, Tumor necrosis factor; assay: Inhibitory activity against TNF-alpha production
[10] = target: T1, Tumor necrosis factor; assay: Inhibition of TNF-alpha production from human monocytes upon stimulation with bacterial lipopolysaccharide (LPS) at a concentration of 464 nM,
[11] = target: T1, Tumor necrosis factor; assay: Inhibition of TNF-alpha production from human monocytes upon stimulation with bacterial lipopolysaccharide (LPS) at a concentration of 100 nM,
[12] = target: T1, Tumor necrosis factor; assay: Inhibition of TNF-alpha production from human monocytes upon stimulation with bacterial lipopolysaccharide (LPS) at a concentration of 215 nM,

T1 sequence (P01375 whole entry): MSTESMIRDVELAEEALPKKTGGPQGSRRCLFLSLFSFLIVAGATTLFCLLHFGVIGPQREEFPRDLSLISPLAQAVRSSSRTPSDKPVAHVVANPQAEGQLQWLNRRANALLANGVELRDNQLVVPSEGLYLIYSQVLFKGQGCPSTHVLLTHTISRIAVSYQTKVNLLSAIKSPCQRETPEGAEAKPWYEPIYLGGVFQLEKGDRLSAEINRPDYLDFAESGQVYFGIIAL

Row | SMILES | response, % of control [2] | response, % of control [3] | response, % of control [4] | response, % of control [5] | other results
1 | O=C1CCC(N2C(=O)c3ccccc3C2=O)C(=O)N1 (stereo unspecified) | – | – | – | – | inhibition [1]: 64%
2 | O=C1c2c(F)c(F)c(F)c(F)c2C(=O)N1c1ccccc1 | 65% | 65% | 65% | 70% | –
3 | COC(=O)CC(c1ccc(OC)c(OC)c1)N1C(=O)c2c(F)c(F)c(F)c(F)c2C1=O (racemic) | -5% | – | – | – | inhibition [6]: 55%; inhibition [7]: 30%; inhibition [8]: 10%
4 | O=C1CCC(N2C(=O)c3c(F)c(F)c(F)c(F)c3C2=O)C(=O)N1 (racemic) | 4% | 85% | 70% | 40% | IC50 [9]: 0.4 µM
5 | CCc1cccc(CC)c1N1C(=O)c2c(F)c(F)c(F)c(F)c2C1=O | -1% | – | – | – | inhibition [10]: 2%; inhibition [11]: 43%; inhibition [12]: 20%
6 | CC(C)c1cccc(C(C)C)c1N1C(=O)c2c(Br)c(Br)c(Br)c(Br)c2C1=O | 62% | 80% | 70% | 53% | –
7 | CC(C)c1cccc(C(C)C)c1N1C(=O)c2c(F)c(F)c(F)c(F)c2C1=O | 5% | 40% | 10% | 2% | –
8 | O=C1CCC(N2C(=O)c3c(Br)c(Br)c(Br)c(Br)c3C2=O)C(=O)N1 (racemic) | 53% | 70% | 60% | 62% | –
9 | Cc1cccc(C)c1N1C(=O)c2c(F)c(F)c(F)c(F)c2C1=O | 3% | 62% | 50% | 30% | –
10 | O=C1CCC(N2C(=O)c3c(Cl)c(Cl)c(Cl)c(Cl)c3C2=O)C(=O)N1 (racemic) | 75% | 80% | 90% | 80% | –
11 | CC(C)c1cccc(C(C)C)c1N1C(=O)c2c(Cl)c(Cl)c(Cl)c(Cl)c2C1=O | 70% | 75% | 80% | 70% | –
12 | CC(C)(C)c1cccc(C(C)(C)C)c1N1C(=O)c2c(F)c(F)c(F)c(F)c2C1=O | -2% | 40% | 30% | 15% | –
